Where two headings read alike, the source gives them in different places.
How the values were obtained:
[1] = target: T1, human thyroxine-binding globulin (TBG) (Homo sapiens, UniProt P05543); assay: TBG fluorescence polarization competitive binding assay (F-T4 probe); conditions: 100 nM TBG, 50 nM F-T4; up to 50 μM competitor
T1 construct: purchased Calbiochem 612075
T1 sequence (P05543 21-415): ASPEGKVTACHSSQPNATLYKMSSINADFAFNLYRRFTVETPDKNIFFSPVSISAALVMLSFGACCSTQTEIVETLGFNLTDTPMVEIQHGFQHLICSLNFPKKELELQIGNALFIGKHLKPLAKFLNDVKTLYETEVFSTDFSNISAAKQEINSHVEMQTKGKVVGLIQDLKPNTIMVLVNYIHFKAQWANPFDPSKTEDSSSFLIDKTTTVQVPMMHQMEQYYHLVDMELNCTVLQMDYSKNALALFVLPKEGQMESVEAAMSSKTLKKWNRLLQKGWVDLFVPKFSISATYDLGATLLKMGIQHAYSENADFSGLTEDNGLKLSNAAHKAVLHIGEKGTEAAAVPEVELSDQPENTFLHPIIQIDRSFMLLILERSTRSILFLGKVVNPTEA

GH3 cells [2] = assay: GH3 cell proliferation assay (individual exposure, with or without amiodarone); assay type: cell-based, rat; conditions: 96 h; for LOEC for GH3 cell proliferation: individual exposure
GH3 cells [3] = assay: GH3 cell proliferation assay in the presence of 10 nM T3; assay type: cell-based, rat
human TRα-LBD = target: T2, human TRα-LBD (Homo sapiens, UniProt P10827); assay: TRα-LBD fluorescence polarization competitive binding assay (F-T3 probe)
T2 sequence (P10827 163-410 isoform P10827-2 limits assumed): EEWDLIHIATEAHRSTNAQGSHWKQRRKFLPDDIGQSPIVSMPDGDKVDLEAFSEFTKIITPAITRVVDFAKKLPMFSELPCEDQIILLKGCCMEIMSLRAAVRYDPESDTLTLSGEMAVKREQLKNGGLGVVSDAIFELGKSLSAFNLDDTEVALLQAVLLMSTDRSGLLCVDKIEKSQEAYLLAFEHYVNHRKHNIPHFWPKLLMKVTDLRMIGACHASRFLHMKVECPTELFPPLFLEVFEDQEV

human TRβ-LBD = target: T3, human TRβ-LBD (Homo sapiens, UniProt P10828); assay: TRβ-LBD fluorescence polarization competitive binding assay (F-T3 probe)
T3 construct: purchased Zhongding Biotechnology Co. Ltd
T3 sequence (P10828 217-461 limits assumed): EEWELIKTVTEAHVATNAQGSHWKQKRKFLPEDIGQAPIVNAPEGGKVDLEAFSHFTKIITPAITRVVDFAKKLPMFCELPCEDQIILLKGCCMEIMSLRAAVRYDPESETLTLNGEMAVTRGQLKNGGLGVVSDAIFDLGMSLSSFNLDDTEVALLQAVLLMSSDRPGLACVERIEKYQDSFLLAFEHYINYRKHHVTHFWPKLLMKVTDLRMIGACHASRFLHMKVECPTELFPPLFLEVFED

[4] = target: T4, human transthyretin (TTR) (Homo sapiens, UniProt P02766); assay: TTR fluorescence polarization competitive binding assay (F-T4 probe); conditions: for TTR RBP (relative binding potency): IC50 of TBBPA divided by that of competitor, TBBPA set as 1.00
T4 construct: purchased Calbiochem 529577

[5] = IC20 of TBBPA divided by that of competitor, TBBPA set as 1.00
[6] = […] nM TRα-LBD, 50 nM F-T3, pH 7.5, 25°C, linear interpolation, read-out: TRα-LBD IC20
[7] = […] nM TRβ-LBD, 50 nM F-T3, pH 7.5, 25°C, linear interpolation, read-out: TRβ-LBD IC20
[8] = […] nM TTR, 50 nM F-T4, pH 7.5, 25°C, linear interpolation, read-out: TTR IC50 (converted)
[9] = co-exposed with 10 nM T3, mass concentration

Q: What does the source list for CC(C)(c1cc(Br)c(O)c(Br)c1)c1cc(Br)c(O)c(Br)c1 [TBBPA, Tetrabromobisphenol A, reference compound]?
A: Binding to TBG [1]: did not bind; Highest activity of GH3 proliferation induction (GH3 cells [2]; individual exposure 0.3-10 μM, relative to 0.1% DMSO control): 137%; LOEC for GH3 cell proliferation (GH3 cells [2]): 2.5 µM; LOEC for enhancing T3-induced GH3 cell proliferation (GH3 cells [3]; co-exposed with 10 nM T3): 2.5 µM; Enhancement of T3-induced GH3 cell proliferation effect (GH3 cells [3]; co-exposed with 10 nM T3, 96 h): 20%; TRα-LBD RBP (human TRα-LBD; [5]): 1.00; IC20 (human TRα-LBD; [6]): 1500 nM; TRβ-LBD RBP (human TRβ-LBD; [5]): 1.00; IC20 (human TRβ-LBD; [7]): 5000 nM

Q: CC(C)(c1cc(Br)c(OCC(Br)CBr)c(Br)c1)c1cc(Br)c(OCC(Br)CBr)c(Br)c1 (centres unmarked) [TBBPA-BDBPE, TBBPA-bis(2,3-dibromopropyl ether)] was tested. Which “Effect on T3-induced GH3 cell proliferation” value (GH3 cells [3]; co-exposed with 10 nM T3) did it give?
A: Its value is “no effect”.

Q: Which “Inhibition of T3-induced GH3 cell proliferation effect” value (GH3 cells [3]; co-exposed with 10 nM T3) does the source give for CC(C)(c1cc(Br)c(OCC2CO2)c(Br)c1)c1cc(Br)c(OCC2CO2)c(Br)c1 (centres unmarked) [TBBPA-BGE, TBBPA-bis(glycidyl ether)] here?
A: Its value is “approximately 80%”.

Q: And the “TRβ-LBD RBP” value (human TRβ-LBD; [5])?
A: The value was 0.20.

Q: And the IC20 (human TRβ-LBD; [7])?
A: The IC20 was 25000 nM.

Q: C=CCOc1c(Br)cc(C(C)(C)c2cc(Br)c(O)c(Br)c2)cc1Br [TBBPA-MAE, TBBPA-mono(allyl ether)] was tested. Which “TTR RBP (relative binding potency)” value [4] did it give?
A: Its value is 2.00.

Q: And the IC50 [4, 8]?
A: Its IC50 is 100 nM.

Q: What about the “TTR-binding potency, fold higher than T4” value ([4]; compared with T4) of the same compound?
A: The value was 2 fold.

Q: And the “TTR-binding potency, fold greater than TBBPA” value ([4]; compared with TBBPA)?
A: Its value is 2 fold.

Q: And the IC50 ([4]; mass concentration given beside the μM value, read-out: TTR IC50 (converted))?
A: The IC50 was 97.6 nM.

Q: What about the “TRα-LBD RBP” value (human TRα-LBD; [5]) of the same compound?
A: Its value is 0.25.

Q: And the IC20 (human TRα-LBD; [6])?
A: Its IC20 is 6000 nM.

Q: And the IC20 (human TRα-LBD; mass concentration given beside the μM value, read-out: TRα-LBD IC20)?
A: The IC20 was 3.4 µg/mL.

Q: What about the “TRβ-LBD RBP” value (human TRβ-LBD; [5]) of the same compound?
A: The value was 1.25.

Q: What about the IC20 (human TRβ-LBD; [7]) of the same compound?
A: Its IC20 is 4000 nM.

Q: And the IC20 (human TRβ-LBD; mass concentration given beside the μM value, read-out: TRβ-LBD IC20)?
A: Its IC20 is 2.3 µg/mL.

Q: How did the “LOEC for GH3 cell proliferation” value (GH3 cells [2]) turn out when CC(C)(c1cc(Br)c(O)c(Br)c1)c1cc(Br)c(OCC(Br)CBr)c(Br)c1 (centres unmarked) [TBBPA-MDBPE, TBBPA-mono(2,3-dibromopropyl ether)] was run?
A: The value was 0.3 µM.

Q: And the “LOEC for GH3 cell proliferation” value (GH3 cells [2]; mass concentration)?
A: The value was 220 µg/L.

Q: And the “TTR RBP (relative binding potency)” value [4]?
A: Its value is 0.20.

Q: And the IC50 ([4]; TTR IC50, […] nM TTR, 50 nM F-T4, pH 7.5, 25°C, linear interpolation)?
A: The IC50 was 1000 nM.

Q: What about the IC50 ([4]; TTR IC50, mass concentration given beside the μM value) of the same compound?
A: Its IC50 is 990 nM.

Q: And the “TTR-binding potency, fold lower than natural ligand T4” value ([4]; compared with T4)?
A: Its value is roughly 5 fold.

Q: What about the “LOEC for enhancing T3-induced GH3 cell proliferation” value (GH3 cells [3]; co-exposed with 10 nM T3) of the same compound?
A: Its value is 0.3 µM.

Q: And the “LOEC for enhancing T3-induced GH3 cell proliferation” value (GH3 cells [3]; [9])?
A: Its value is 220 µg/L.

Q: And the “TRα-LBD RBP” value (human TRα-LBD; [5])?
A: The value was 0.03.

Q: And the IC20 (human TRα-LBD; pH 7.5, read-out: TRα-LBD IC20)?
A: The IC20 was 50000 nM.

Q: What about the IC20 (human TRα-LBD; read-out: TRα-LBD IC20) of the same compound?
A: The IC20 was 36.8 µg/mL.

Q: What about the “TRβ-LBD RBP” value (human TRβ-LBD; [5]) of the same compound?
A: Its value is 0.25.

Q: What about the IC20 (human TRβ-LBD; pH 7.5, read-out: TRβ-LBD IC20) of the same compound?
A: Its IC20 is 20000 nM.

Q: What about the IC20 (human TRβ-LBD; read-out: TRβ-LBD IC20) of the same compound?
A: Its IC20 is 14.7 µg/mL.

Q: C=CCOc1c(Br)cc(C(C)(C)c2cc(Br)c(OCC=C)c(Br)c2)cc1Br [TBBPA-BAE, TBBPA-bis(allyl ether)] was tested. Which “Inhibition of T3-induced GH3 cell proliferation effect” value (GH3 cells [3]; co-exposed with 10 nM T3) did it give?
A: The value was roughly 60%.

Q: CC(C)(c1cc(Br)c(O)c(Br)c1)c1cc(Br)c(OCC2CO2)c(Br)c1 (centres unmarked) [TBBPA-MGE, TBBPA-mono(glycidyl ether)] was tested. Which “LOEC for GH3 cell proliferation” value (GH3 cells [2]) did it give?
A: The value was 2.5 µM.

Q: What about the “LOEC for GH3 cell proliferation” value (GH3 cells [2]; mass concentration) of the same compound?
A: Its value is 1400 µg/L.

Q: What about the “TTR RBP (relative binding potency)” value [4] of the same compound?
A: The value was 0.40.

Q: What about the IC50 [4, 8] of the same compound?
A: Its IC50 is 500 nM.

Q: And the “TTR-binding potency, fold lower than natural ligand T4” value ([4]; compared with T4)?
A: Its value is “approximately 2 fold”.

Q: What about the “LOEC for enhancing T3-induced GH3 cell proliferation” value (GH3 cells [3]; co-exposed with 10 nM T3) of the same compound?
A: Its value is 1.2 µM.

Q: What about the “LOEC for enhancing T3-induced GH3 cell proliferation” value (GH3 cells [3]; [9]) of the same compound?
A: The value was 700 µg/L.

Q: What about the “TRα-LBD RBP” value (human TRα-LBD) of the same compound?
A: The value was 0.18.

Q: What about the IC20 (human TRα-LBD; [6]) of the same compound?
A: The IC20 was 8000 nM.

Q: And the “TRβ-LBD RBP” value (human TRβ-LBD)?
A: Its value is 0.83.

Q: What about the IC20 (human TRβ-LBD; [7]) of the same compound?
A: Its IC20 is 6000 nM.

Source: PMC7584160 (Environmental Health Perspectives, 2020)
